Assay results as given in US4277474A, “Treatment of allergic symptoms with propanone derivatives” (Nippon Zoki Pharmaceutical Co., Ltd., priority 1978, dated 1981).
Counter-ions that a name gives are not always drawn.

How the values were obtained:
Peritoneal cavity cells = experiment: Inhibitory effect on histamine release from sensitized peritoneal cavity cells; format: cell-based, rat (Wistar-strain); design: Released histamine, fluorescence intensity / Residual histamine, fluorescence intensity / Total histamine, fluorescence intensity: unit not given here; conditions: for Histamine release rate / Net release rate / inhibition at 10 µM / Released histamine, fluorescence intensity / Residual histamine, fluorescence intensity / Total histamine, fluorescence intensity: 0.01 mM; for Net release rate: release not caused by antigen-antibody reaction deducted
Protocol: The inhibitory effect on histamine release of the compounds according to the present invention was investigated as follows. […] These cells were suspended in a phosphoric acid buffer solution (containing 0.1% of gelatin) and each 0.5 ml portion of this suspension was taken in a polyethylene tube. 1 ml each of solutions of various concentrations of test compound and 0.5 ml of 200 μg/ml of ovalbumin solution were added therein. They were incubated for 20 minutes at 37° C. to measure the histamine release rate. The amount of histamine was measured by a modified Shore method using fluorescence.

[1] = tested on: Hartley-strain male guinea pig; experiment: Experimental atopic asthma in passively sensitized guinea pigs; format: in vivo; conditions: 50 mg/kg peroral
Protocol: [Levine, B. B. et al., J. Immunol., 106, 29(1971)] was injected at a dosage of 0.25 ml/guinea pig into the hearts of groups of Hartley-strain male guinea pig (a group consisting of four), each weighing 250-300 g, to make them passively sensitive. […] The rate of breathing and the ratio of expiration time to inspiration time were calculated from the velocity of breathing. As an antigen to induce the reaction 200 μg/kg of benzylpenicilloyl bovine serum albumin [(BPO)23 -BSA] obtained by the method of Levine et al. [Levine et al.; J. Clin. Invest., 47, 556 (1968)] was injected through a cannula into the jugular vein.

homo PCA reaction = experiment: Inhibitory effect on homo PCA reaction in rats; format: in vivo
[2] = Acute toxicity in mice (LD50, Litchfield-Wilcoxon); conditions: mouse, in vivo, ICR male mice
Protocol: Acute toxicity tests were carried out by intraperitoneal or peroral administration of the compound according to the present invention to groups of 10 ICR-strain male mice (weighing 20 g on the average), and each LD50 value was determined by Litchfield-Wilcoxon Method.

SRS-A = experiment: Anti-SRS-A effect on guinea pig's ileum (Magnus method)
Protocol: The anti-SRS-A effect of the compounds according to the present invention on guinea pig's ileum was measured by Magnus method. […] One minute thereafter, the ileum contraction inhibiting rate (%) was measured with use of 1 ml of 80% ethanol solution of SRS-A (150 mg/ml).

SMILES: Cc1ccc(C(=O)C(C)CN2CCCCC2)cc1 (centres unmarked) [2,4'-dimethyl-3-piperidinopropiophenone, reference compound]
- Histamine release rate (Peritoneal cavity cells): 50.8%
- Net release rate (Peritoneal cavity cells): 36.9%
- inhibition at 10 µM (Peritoneal cavity cells; Rattus norvegicus): 0%
- inhibition on the variation from the normal values exhibited in the control group (in words) [1]: less inhibitory effect than the compounds according to the present invention
- Expiration/inspiration ([1]; 1 min, 1 h before induction): 90.2 ± 4.02%
- Rate of breathing ([1]; 1 min, 1 h before induction): 120.6 ± 4.98%
- Volume of breathing ([1]; 1 min, 1 h before induction): 123.4 ± 6.52%
- Expiration/inspiration ([1]; 3 min, 1 h before induction): 93.9 ± 5.09%
- Rate of breathing ([1]; 3 min, 1 h before induction): 98.5 ± 6.55%
- Volume of breathing ([1]; 3 min, 1 h before induction): 92.6 ± 8.29%
- Expiration/inspiration ([1]; 6 min, 1 h before induction): 94.3 ± 5.34%
- Rate of breathing ([1]; 6 min, 1 h before induction): 89.5 ± 3.36%
- Volume of breathing ([1]; 6 min, 1 h before induction): 96.7 ± 3.97%
- Expiration/inspiration ([1]; 18 min, 1 h before induction): 96.6 ± 2.39%
- Rate of breathing ([1]; 18 min, 1 h before induction): 91.3 ± 1.57%
- Volume of breathing ([1]; 18 min, 1 h before induction): 90.6 ± 1.52%
- Expiration/inspiration ([1]; 30 min, 1 h before induction): 94.8 ± 4.76%
- Rate of breathing ([1]; 30 min, 1 h before induction): 93.3 ± 2.80%
- Volume of breathing ([1]; 30 min, 1 h before induction): 91.4 ± 6.20%
- Expiration/inspiration ([1]; 60 min, 1 h before induction): 93.9 ± 3.98%
- Rate of breathing ([1]; 60 min, 1 h before induction): 86.9 ± 6.14%
- Volume of breathing ([1]; 60 min, 1 h before induction): 90.9 ± 4.47%
- Expiration/inspiration ([1]; 90 min, 1 h before induction): 104.3 ± 6.02%
- Rate of breathing ([1]; 90 min, 1 h before induction): 84.6 ± 6.03%
- Volume of breathing ([1]; 90 min, 1 h before induction): 91.0 ± 3.34%
- Expiration/inspiration ([1]; 130 min, 1 h before induction): 107.0 ± 3.44%
- Rate of breathing ([1]; 130 min, 1 h before induction): 87.3 ± 4.44%
- Volume of breathing ([1]; 130 min, 1 h before induction): 94.9 ± 4.71%
- Expiration/inspiration ([1]; 180 min, 1 h before induction): 109.3 ± 6.26%
- Rate of breathing ([1]; 180 min, 1 h before induction): 87.5 ± 6.43%
- Volume of breathing ([1]; 180 min, 1 h before induction): 93.8 ± 6.49%
- Expiration/inspiration ([1]; before test): 100.0 ± 0.00%
- Rate of breathing ([1]; before test): 100.0 ± 0.00%
- Volume of breathing ([1]; before test): 100.0 ± 0.00%
- inhibition of homo PCA reaction (homo PCA reaction; 200 mg/Kg peroral): about 40%

SMILES: CC(CN1CCCCC1)C(=O)c1ccc2ccccc2c1 (stereo not drawn) [Example 2, 2-methyl-3-piperidino-β-propionaphthone hydrochloride]
- LD50 ([2]; ip, intraperitoneal): 120 mg/kg
- LD50 ([2]; po, peroral): 370 mg/kg
- Histamine release rate (Peritoneal cavity cells): 38.6%
- Released histamine, fluorescence intensity (Peritoneal cavity cells): 184
- Residual histamine, fluorescence intensity (Peritoneal cavity cells): 292
- Total histamine, fluorescence intensity (Peritoneal cavity cells): 476
- Net release rate (Peritoneal cavity cells): 24.7%
- inhibition at 10 µM (Peritoneal cavity cells; Rattus norvegicus): 24.5%
- inhibition at 100 µM (Peritoneal cavity cells; Rattus norvegicus, 0.1 mM, read-out: Inhibitory effect on histamine release): 60%
- ileum contraction inhibiting rate (SRS-A; 10^-4 g/ml): 76.0 ± 7.23%
- ileum contraction inhibiting rate (SRS-A; 10^-5 g/ml): 53.7 ± 8.68%
- ileum contraction inhibiting rate (SRS-A; 10^-6 g/ml): 10.0 ± 8.08%
- Expiration/inspiration ([1]; 1 min, 1 h before induction): 78.4 ± 9.00%
- Rate of breathing ([1]; 1 min, 1 h before induction): 120.8 ± 3.19%
- Volume of breathing ([1]; 1 min, 1 h before induction): 108.2 ± 1.78%
- Expiration/inspiration ([1]; 3 min, 1 h before induction): 108.7 ± 11.36%
- Rate of breathing ([1]; 3 min, 1 h before induction): 90.3 ± 3.36%
- Volume of breathing ([1]; 3 min, 1 h before induction): 86.7 ± 4.14%
- Expiration/inspiration ([1]; 6 min, 1 h before induction): 99.8 ± 4.30%
- Rate of breathing ([1]; 6 min, 1 h before induction): 92.2 ± 5.69%
- Volume of breathing ([1]; 6 min, 1 h before induction): 90.3 ± 8.26%
- Expiration/inspiration ([1]; 18 min, 1 h before induction): 106.5 ± 5.25%
- Rate of breathing ([1]; 18 min, 1 h before induction): 91.6 ± 5.71%
- Volume of breathing ([1]; 18 min, 1 h before induction): 86.0 ± 8.49%
- Expiration/inspiration ([1]; 30 min, 1 h before induction): 100.3 ± 3.41%
- Rate of breathing ([1]; 30 min, 1 h before induction): 96.4 ± 4.09%
- Volume of breathing ([1]; 30 min, 1 h before induction): 93.7 ± 3.75%
- Expiration/inspiration ([1]; 60 min, 1 h before induction): 97.0 ± 3.47%
- Rate of breathing ([1]; 60 min, 1 h before induction): 96.2 ± 3.62%
- Volume of breathing ([1]; 60 min, 1 h before induction): 96.6 ± 4.92%
- Expiration/inspiration ([1]; 90 min, 1 h before induction): 96.5 ± 3.18%
- Rate of breathing ([1]; 90 min, 1 h before induction): 94.0 ± 5.23%
- Volume of breathing ([1]; 90 min, 1 h before induction): 97.6 ± 7.12%
- Expiration/inspiration ([1]; 130 min, 1 h before induction): 106.4 ± 4.19%
- Rate of breathing ([1]; 130 min, 1 h before induction): 94.3 ± 6.97%
- Volume of breathing ([1]; 130 min, 1 h before induction): 92.1 ± 9.25%
- Expiration/inspiration ([1]; 180 min, 1 h before induction): 108.7 ± 6.81%
- Rate of breathing ([1]; 180 min, 1 h before induction): 98.2 ± 5.42%
- Volume of breathing ([1]; 180 min, 1 h before induction): 97.8 ± 7.28%
- Expiration/inspiration ([1]; before test): 100.0 ± 0.00%
- Rate of breathing ([1]; before test): 100.0 ± 0.00%
- Volume of breathing ([1]; before test): 100.0 ± 0.00%
- inhibitory effect on homo PCA reaction, dose dependence (in words) (homo PCA reaction): their effects depended on the dose
- inhibition of homo PCA reaction (homo PCA reaction; 5 mg/Kg intravenous): 62.1%

SMILES: Cc1ccc(C(=O)C(C)CN2CCCCC2)cc1C.Cl (centres unmarked) [Example 5, 2,3',4'-trimethyl-3-piperidinopropiophenone hydrochloride]
- LD50 ([2]; ip, intraperitoneal): 117 mg/kg
- LD50 ([2]; po, peroral): 325 mg/kg
- Histamine release rate (Peritoneal cavity cells): 42.9%
- Released histamine, fluorescence intensity (Peritoneal cavity cells): 210
- Residual histamine, fluorescence intensity (Peritoneal cavity cells): 280
- Total histamine, fluorescence intensity (Peritoneal cavity cells): 490
- Net release rate (Peritoneal cavity cells): 29.0%
- inhibition at 10 µM (Peritoneal cavity cells; Rattus norvegicus): 11.3%
- ileum contraction inhibiting rate (SRS-A; 10^-4 g/ml): 100.0 ± 0%
- ileum contraction inhibiting rate (SRS-A; 10^-5 g/ml): 67.7 ± 8.11%
- ileum contraction inhibiting rate (SRS-A; 10^-6 g/ml): 12.3 ± 8.25%
- Expiration/inspiration ([1]; 1 min, 1 h before induction): 77.6 ± 3.68%
- Rate of breathing ([1]; 1 min, 1 h before induction): 122.0 ± 16.99%
- Volume of breathing ([1]; 1 min, 1 h before induction): 100.5 ± 5.01%
- Expiration/inspiration ([1]; 3 min, 1 h before induction): 92.3 ± 2.19%
- Rate of breathing ([1]; 3 min, 1 h before induction): 93.7 ± 7.20%
- Volume of breathing ([1]; 3 min, 1 h before induction): 86.9 ± 5.99%
- Expiration/inspiration ([1]; 6 min, 1 h before induction): 98.7 ± 3.93%
- Rate of breathing ([1]; 6 min, 1 h before induction): 93.7 ± 5.80%
- Volume of breathing ([1]; 6 min, 1 h before induction): 86.4 ± 6.96%
- Expiration/inspiration ([1]; 18 min, 1 h before induction): 97.7 ± 2.62%
- Rate of breathing ([1]; 18 min, 1 h before induction): 99.9 ± 4.00%
- Volume of breathing ([1]; 18 min, 1 h before induction): 86.3 ± 3.71%
- Expiration/inspiration ([1]; 30 min, 1 h before induction): 103.2 ± 1.10%
- Rate of breathing ([1]; 30 min, 1 h before induction): 92.5 ± 1.76%
- Volume of breathing ([1]; 30 min, 1 h before induction): 86.6 ± 2.44%
- Expiration/inspiration ([1]; 60 min, 1 h before induction): 94.3 ± 3.87%
- Rate of breathing ([1]; 60 min, 1 h before induction): 97.0 ± 1.81%
- Volume of breathing ([1]; 60 min, 1 h before induction): 93.5 ± 6.17%
- Expiration/inspiration ([1]; 90 min, 1 h before induction): 96.7 ± 4.58%
- Rate of breathing ([1]; 90 min, 1 h before induction): 90.7 ± 6.14%
- Volume of breathing ([1]; 90 min, 1 h before induction): 93.5 ± 3.78%
- Expiration/inspiration ([1]; 130 min, 1 h before induction): 106.2 ± 5.28%
- Rate of breathing ([1]; 130 min, 1 h before induction): 92.9 ± 5.33%
- Volume of breathing ([1]; 130 min, 1 h before induction): 87.4 ± 3.03%
- Expiration/inspiration ([1]; 180 min, 1 h before induction): 100.1 ± 2.03%
- Rate of breathing ([1]; 180 min, 1 h before induction): 97.5 ± 1.82%
- Volume of breathing ([1]; 180 min, 1 h before induction): 95.1 ± 3.33%
- Expiration/inspiration ([1]; before test): 100.0 ± 0.00%
- Rate of breathing ([1]; before test): 100.0 ± 0.00%
- Volume of breathing ([1]; before test): 100.0 ± 0.00%
- inhibitory effect on homo PCA reaction, dose dependence (in words) (homo PCA reaction): their effects depended on the dose
- inhibition of homo PCA reaction (homo PCA reaction; 200 mg/Kg peroral): about 70%
